Assay results taken from patent US5068247A, “2-aminopentanoic acid compounds and their use as immunosuppressants” (priority 1989, dated 1991).

What was measured:
[1] = system: allo-reactive cytotoxic T cells in spleen of EL4-immunized BALB/c mice; experiment: suppression of allo-reactive cytotoxic T cells induced by immunization of mouse with allogenic cells; assay type: in vivo
Procedure: Male 5- to 7-week-old BALB/c mice (H-2^d) were immunized with leukemia cell EL4 derived from C57BL/6 mice (H-2^b) (10^7 cells/mouse, intraperitoneal administration), and the test substance was administered intraperitoneally 5 times at the doses of 0.001 to 3 mg/kg/day or orally at the doses of 0.3 to 10 mg/kg/day from the day of immunization. Nine to ten days after immunization, the spleen was resected from the mice to prepare a single cell suspension and the suspension was used as effector cell suspension. The ^51 Cr-release assay was carried out in the same way as in Experiment Example 3, using EL4 cells as the target cells to measure the cytotoxic activity.
The activity of allo-reactive cytotoxic T cell is indicated by lytic unit (LU) per spleen. One lytic unit (LU) is defined as the number of effector cells required to cause 25% lysis of 5×10^3 target cells. At the same time, the body weight of mouse and number of spleen cells were also determined.

[2] = cytotoxicity to cultured tumor cell line K562; conditions: human, k562 cells, Suppression
Procedure: (§1) Cytotoxicity to various human tumor cell lines was examined as follows:
(§2) Cells of human cell lines, K562, MOLT4, U937 and HL60 were respectively suspended to the concentration of 4×10^5 cells/ml in the RPMI1640 culture medium supplemented with 20% FCS. Fifty μl of each suspension was added to each well of a 96-well microtest plate to which 50 μl of the test solution had been added. After culturing the suspension at 37° C. in an atmosphere of 5% carbon dioxide for 72 hours, the absorbancy at 570 nm was measured in the same way as with the colorimetry using MTT in Experiment Example 1, and the percent suppression was calculated by the following formula, which was used as an index of cytotoxicity.

[3] = system: K562; experiment: cytotoxicity to cultured tumor cell line K562
Procedure: as §1, §2

[4] = 0.01 mg/kg/day ip × 5, Table 9C
[5] = 0.01 mg/kg/day po × 5, Table 9D
[6] = 0.01 mg/kg/day po × 10, Table 9E
[7] = 0.03 mg/kg/day ip × 5, Table 9C
[8] = 0.03 mg/kg/day po × 5, Table 9D
[9] = 0.03 mg/kg/day po × 10, Table 9E
[10] = 0.1 mg/kg/day po × 10, Table 9E
[11] = 0.3 mg/kg/day po × 10, Table 9E

Compound: CCCCCCCCCCCCC/C=C/C[C@@H](O)[C@H](O)[C@@](N)(CO)C(=O)O [Example 5]
- Number of spleen cells ([1]; 0.003 mg/kg/day po × 10, Table 9E): 1.3 ± 0.3 × 10^8
- Body weight 9 days after immunization [1, 4]: 24.4 ± 1.1 g
- Cytotoxic T cell activity [1, 4]: 443 ± 141 LU/spleen
- Cytotoxic T cell activity, suppression [1, 4]: 62.1%
- Number of spleen cells [1, 4]: 2.2 ± 0.3 × 10^8 cell
- Body weight 10 days after immunization [1, 5]: 25.8 ± 1.3 g
- Cytotoxic T cell activity [1, 5]: 709 ± 189 LU/spleen
- Cytotoxic T cell activity, suppression [1, 5]: 53.7%
- Number of spleen cells [1, 5]: 1.6 ± 0.3 × 10^8
- Body weight 10 days after immunization [1, 6]: 25.2 ± 1.3 g
- Cytotoxic T cell activity [1, 6]: 996 ± 279 LU/spleen
- Cytotoxic T cell activity, suppression [1, 6]: 64.2%
- Number of spleen cells [1, 6]: 1.4 ± 0.2 × 10^8
- Body weight 9 days after immunization [1, 7]: 24.0 ± 2.2 g
- Cytotoxic T cell activity [1, 7]: 352 ± 148 LU/spleen
- Cytotoxic T cell activity, suppression [1, 7]: 69.9%
- Number of spleen cells [1, 7]: 2.1 ± 0.5 × 10^8 cell
- Body weight 10 days after immunization [1, 8]: 25.0 ± 1.2 g
- Cytotoxic T cell activity [1, 8]: 684 ± 181 LU/spleen
- Cytotoxic T cell activity, suppression [1, 8]: 55.3%
- Number of spleen cells [1, 8]: 1.6 ± 0.3 × 10^8
- Body weight 10 days after immunization [1, 9]: 24.2 ± 1.3 g
- Cytotoxic T cell activity [1, 9]: 799 ± 304 LU/spleen
- Cytotoxic T cell activity, suppression [1, 9]: 71.3%
- Number of spleen cells [1, 9]: 1.5 ± 0.3 × 10^8
- Body weight 9 days after immunization ([1]; 0.1 mg/kg/day ip × 5, Table 9C): 25.4 ± 1.9 g
- Cytotoxic T cell activity ([1]; 0.1 mg/kg/day ip × 5, Table 9C): 158 ± 86 LU/spleen
- Cytotoxic T cell activity, suppression ([1]; 0.1 mg/kg/day ip × 5, Table 9C): 86.5%
- Number of spleen cells ([1]; 0.1 mg/kg/day ip × 5, Table 9C): 1.9 ± 0.3 × 10^8 cell
- Body weight 10 days after immunization ([1]; 0.1 mg/kg/day po × 5, Table 9D): 25.2 ± 0.4 g
- Cytotoxic T cell activity ([1]; 0.1 mg/kg/day po × 5, Table 9D): 638 ± 155 LU/spleen
- Cytotoxic T cell activity, suppression ([1]; 0.1 mg/kg/day po × 5, Table 9D): 58.3%
- Number of spleen cells ([1]; 0.1 mg/kg/day po × 5, Table 9D): 1.7 ± 0.4 × 10^8
- Body weight 10 days after immunization [1, 10]: 25.0 ± 0.7 g
- Cytotoxic T cell activity [1, 10]: 731 ± 318 LU/spleen
- Cytotoxic T cell activity, suppression [1, 10]: 73.8%
- Number of spleen cells [1, 10]: 1.4 ± 0.4 × 10^8
- Body weight 9 days after immunization ([1]; 0.3 mg/kg/day ip × 5, Table 9C): 26.0 ± 1.6 g
- Cytotoxic T cell activity ([1]; 0.3 mg/kg/day ip × 5, Table 9C): < 50 LU/spleen
- Cytotoxic T cell activity, suppression ([1]; 0.3 mg/kg/day ip × 5, Table 9C): > 95%
- Number of spleen cells ([1]; 0.3 mg/kg/day ip × 5, Table 9C): 1.9 ± 0.2 × 10^8 cell
- Body weight 10 days after immunization ([1]; 0.3 mg/kg/day po × 5, Table 9D): 25.4 ± 0.5 g
- Cytotoxic T cell activity ([1]; 0.3 mg/kg/day po × 5, Table 9D): 609 ± 197 LU/spleen
- Cytotoxic T cell activity, suppression ([1]; 0.3 mg/kg/day po × 5, Table 9D): 60.2%
- Number of spleen cells ([1]; 0.3 mg/kg/day po × 5, Table 9D): 1.6 ± 0.3 × 10^8
- Body weight 10 days after immunization [1, 11]: 24.2 ± 1.3 g
- Cytotoxic T cell activity [1, 11]: 651 ± 257 LU/spleen
- Cytotoxic T cell activity, suppression [1, 11]: 76.6%
- Number of spleen cells [1, 11]: 1.6 ± 0.3 × 10^8
- Body weight 10 days after immunization ([1]; 1 mg/kg/day po × 5, Table 9D): 25.0 ± 1.4 g
- Cytotoxic T cell activity ([1]; 1 mg/kg/day po × 5, Table 9D): 421 ± 12 LU/spleen
- Cytotoxic T cell activity, suppression ([1]; 1 mg/kg/day po × 5, Table 9D): 72.5%
- Number of spleen cells ([1]; 1 mg/kg/day po × 5, Table 9D): 1.7 ± 0.3 × 10^8
- Body weight 10 days after immunization ([1]; 1 mg/kg/day po × 10, Table 9E): 22.4 ± 0.5 g
- Cytotoxic T cell activity ([1]; 1 mg/kg/day po × 10, Table 9E): 269 ± 179 LU/spleen
- Cytotoxic T cell activity, suppression ([1]; 1 mg/kg/day po × 10, Table 9E): 90.3%
- Number of spleen cells ([1]; 1 mg/kg/day po × 10, Table 9E): 1.5 ± 0.3 × 10^8
- induction of allo-reactive cytotoxic T cells (in words) ([1]; 5 times intraperitoneal or oral): strongly suppresses the induction of allo-reactive cytotoxic T cells
- induction of allo-reactive cytotoxic T cells (in words), 10 oral administrations ([1]; 10 times oral, up to 0.03 mg/kg): significant suppressive activity up to the dose of 0.03 mg/kg
- cytotoxicity at 72 h ([2]; 0.1 μg/ml): 2.2%
- cytotoxicity at 72 h ([2]; 1 μg/ml): 4%
- cytotoxicity at 72 h ([2]; 10 μg/ml): 4.7%
- Absorbancy ([3]; 0.1 μg/ml): 1.111 ± 0.037
- Absorbancy ([3]; 1 μg/ml): 1.090 ± 0.044
- Absorbancy ([3]; 10 μg/ml): 1.083 ± 0.033
